# Measurements reported in ChEMBL document CHEMBL1137669, “BK Virus replication in vitro: limited effect of drugs interfering with viral uptake and intracellular transport” (Antimicrob Agents Chemother, 2007).
# Columns and labels:
# [1] = Cytotoxicity against human WI38 cells assessed as reduction in cellular DNA level preincubated for 2 hrs before viral infection measured after 7 days by real time PCR assay; type: cell-based, WI-38; details: for CC50 at 168 h: WI38 cells
# [2] = system: BK polyomavirus; experiment: Antiviral activity against BKV Gardner ATCC VR837 infected in human WI38 cells assessed as reduction in viral DNA level preincubated for 2 hrs before viral infection measured after 7 days by real time PCR assay; type: functional, organism-based, Betapolyomavirus hominis, WI-38
# [3] = Cytotoxicity against human WI38 cells assessed as reduction in cellular DNA level at 6.25 uM preincubated for 2 hrs before viral infection measured after 7 days by real time PCR assay; type: cell-based; details: wi-38, 168 h
# [4] = Selectivity index, ratio of CC50 for human WI38 cells preincubated for 2 hrs before viral infection measured after 7 days by real time PCR assay to EC50 for BKV Gardner ATCC VR837; type: toxicity, cell-based, WI-38; details: for selectivity ratio at 168 h: WI38 cells, read-out: Ratio CC50/EC50
# [5] = Cytotoxicity against human WI38 cells assessed as reduction in cellular DNA level after 7 days by real time PCR assay; type: cell-based, WI-38
# [6] = Selectivity index, ratio of CC50 for human WI38 cells by conventional neutral red assay to EC50 for BKV Gardner ATCC VR837; type: toxicity, cell-based, WI-38; details: read-out: Ratio CC50/EC50
# [7] = Cytotoxicity against human WI38 cells by conventional neutral red assay; type: cell-based, WI-38
# [8] = Selectivity index, ratio of CC50 for human WI38 cells after 7 days by real time PCR assay to EC50 for BKV Gardner ATCC VR837; type: toxicity, cell-based, WI-38; details: read-out: Ratio CC50/EC50
# [9] = system: BK polyomavirus; experiment: Antiviral activity against BKV Gardner ATCC VR837 infected in human WI38 cells assessed as reduction in viral DNA level after 7 days by real time PCR assay; type: functional, organism-based; details: Betapolyomavirus hominis, WI-38, 168 h
# [10] = Betapolyomavirus hominis, Gardner, WI-38
Molecule,CC50 at 168 h [1],"EC50 [2, 10]",selectivity ratio at 168 h [4],also measured
COC(=O)[C@H]1O[C@@H](O)[C@H](O)[C@@H](O)[C@H]1O,> 100 µM,> 100 µM,,
C[C@@H]1[C@H](O)[C@@H](C)/C=C/C=C/C=C/C=C/C=C/C=C/C=C/[C@H](O[C@@H]2O[C@H](C)[C@@H](O)[C@H](N)[C@@H]2O)C[C@@H]2O[C@](O)(C[C@@H](O)C[C@@H](O)[C@H](O)CC[C@@H](O)C[C@@H](O)CC(=O)O[C@H]1C)C[C@H](O)[C@H]2C(=O)O [AMPHOTERICIN B],4.99 µM,1.67 µM,2.99,Activity [3]: Active
CN1CCN(C2=Nc3cc(Cl)ccc3Nc3ccccc32)CC1 [CLOZAPINE],40 µM,23.3 µM,4.9,
O=C1Cc2cc(CCN3CCN(c4nsc5ccccc45)CC3)c(Cl)cc2N1 [ZIPRASIDONE],> 100 µM,> 100 µM,,
CCN(CC)CCCC(C)Nc1ccnc2cc(Cl)ccc12 (centres undefined) [CHLOROQUINE],8.5 µM,1.7 µM,5.32,
CN(C)CCCN1c2ccccc2Sc2ccc(Cl)cc21 [CHLORPROMAZINE],10.3 µM,7.6 µM,1.98,
Cc1cc2c(s1)Nc1ccccc1N=C2N1CCN(C)CC1 [OLANZAPINE],> 100 µM,> 100 µM,,
CC(=O)OC[C@H]1OC[C@H](OC(C)=O)[C@@H](OC(C)=O)[C@H]1OC(C)=O,> 100 µM,> 100 µM,,
CC(=O)OC[C@H]1OC[C@H](OC(C)=O)[C@@H](OC(C)=O)[C@@H]1OC(C)=O,> 100 µM,> 100 µM,,
O=C(O)[C@H]1OC(O)[C@H](O)[C@@H](O)[C@@H]1O (some centres undefined),> 100 µM,> 100 µM,,
Cc1nc2n(c(=O)c1CCN1CCC(c3noc4cc(F)ccc34)CC1)CCCC2 [RISPERIDONE],25 µM,> 25 µM,,
CCCCCCCCCO[C@@H]1O[C@H](CO)[C@@H](O)[C@H](O)[C@H]1O,78.3 µM,6.35 µM,16,CC50 at 168 h [5]: 114 µM; selectivity ratio [6]: 30.5; CC50 [7]: 126 µM; selectivity ratio at 168 h [8]: 1.25; EC50 [9]: 98.3 µM
CO[C@H]1O[C@H](CO)[C@@H](O)[C@H](O)[C@@H]1O,> 100 µM,> 100 µM,,
COC(=O)[C@H]1O[C@@H](OC(C)=O)[C@H](OC(C)=O)[C@@H](OC(C)=O)[C@@H]1OC(C)=O,> 100 µM,> 100 µM,,
O=C1OC([C@@H](O)CO)[C@H](O)[C@@H]1O (some centres undefined),> 100 µM,> 100 µM,,
NYSTATIN,,,,"CC50 ([1]; wi-38, 168 h): 48.6 µM; EC50 ([2]; wi-38): 9.81 µM; Ratio CC50/EC50 ([4]; wi-38, 168 h): 5.13"
COc1cc2c(c(OC)c1OC)-c1ccc(OC)c(=O)cc1[C@@H](NC(C)=O)CC2 [COLCHICINE],0.0476 µM,0.022 µM,3.63,
CCCCCCCCO[C@@H]1O[C@H](CO)[C@@H](O)[C@H](O)[C@H]1O,> 100 µM,> 100 µM,,
